According to publication PMC8406319, “The dCache Chemoreceptor TlpA of Helicobacter pylori Binds Multiple Attractant and Antagonistic Ligands via Distinct Sites” (mBio, 2021):
Where a name gives a salt, the structure may show the parent alone.

Columns and labels:
TlpALBD point mutants = assay: SPR binding affinity of TlpALBD point mutants relative to WT; parameters: species or system Helicobacter pylori SS1; details: vs WT
Excerpt: The periplasmic portion of TlpA (TlpALBD), amino acids 28 to 299, from Helicobacter pylori SS1 was cloned into a pBH4 expression vector (pBH4_TlpALBD) to generate an N-terminal 6×His-tagged construct, with a tobacco etch virus (TEV) protease site, under the control of isopropyl-β-D-thiogalactopyranoside (IPTG) ([19]). […] TlpALBD and all point mutants were purified as described previously by Sweeney et al. ([19]).
Purified TlpALBD was immobilized on a CM5 series S sensor chip, and binding affinities were tested using a Biacore S200 instrument (GE Healthcare) as described previously ([39], [57], [59]). Briefly, proteins were captured using an amine-coupling kit (GE Healthcare), in which the carboxylmethyl dextran matrix of the sensor chip was activated by the injection of a mixture of 0.2 M 1-ethyl-3-[(3-dimethylamino)propyl]-carbodiimide (EDC) and 0.05 M N-hydroxysuccinimide (NHS), followed by the neutralization of the remaining unreacted NHS ester groups by the injection of 1 M ethanolamine-HCl (pH 8.0). Purified TlpALBD was diluted in 10 mM sodium acetate buffer (pH 4.5) at a concentration of 100 μg/ml for immobilization to the chip. A total of 8,400 response units (RU) of TlpALBD were captured on flow cell 2. […] The data sets were analyzed using Biacore S200 evaluation software 2.0.2; sensorgrams were double-reference subtracted.

H. pylori PMSS1 WT = assay: Temporal chemotaxis assay (live-cell video microscopy, direction changes), WT; format: cell-based, Helicobacter pylori
Procedure: H. pylori chemotactic responses toward the seven putative TlpA-dependent ligands were examined by a live-cell video microscopy assay that measures the temporal chemotaxis response to test ligands. […] Acidic conditions are sensed by chemoreceptors other than TlpA ([24], [29], [31]) and potentially mask chemotactic responses to the ligands being tested.
Cultures of H. pylori PMSS1 WT and ΔtlpA strains were grown overnight, back-diluted, and then incubated until an OD600 of 0.12 to 0.15 was reached. Cultures were treated with water (Mock) or various concentrations of compounds, as indicated. […] The cells were immediately filmed, and direction changes were counted over a 3-s swimming period in at least 100 cells per treatment from 3 biological replicates. Data are normalized to the values for the untreated control for each strain, as described in Materials and Methods. Error bars represent the standard errors of the means. *, P < 0.05; **, P < 0.01; ***, P < 0.001 (comparisons to the untreated control per strain using two-way ANOVA with Dunnett’s multiple-comparison test).
Swimming behavior assays were done with H. pylori PMSS1 strains grown in BB10 as described above. Cultures grown overnight were diluted to an optical density at 600 nm (OD600) of 0.1 in fresh BB10 and then incubated with shaking as described above until an OD600 of 0.12 to 0.15 was reached. […] The number of direction changes in a bacterial swimming trajectory was enumerated over a 3-s interval to determine whether each putative ligand is sensed as an attractant or repellent or elicits no response ([20], [25][–][30]). […] Each control is sensed by chemoreceptors other than TlpA ([24], [25], [29], [31]). The pH of BB10 upon treatment was independently assessed using a Denver Instruments pH meter. […] Therefore, to be able to compare the results to those of previous experiments, we continued resuspending acidified ligands in pure water and then adjusting the pH of the resuspended ligand using NaOH. Cultures were filmed immediately after ligand addition at a ×400 magnification using a Hamamatsu C4742-95 digital camera with μManager software (version 1.4.22), mounted on a Nikon Eclipse E600 phase-contrast microscope. For the competition chemotaxis assay, cultures of H. pylori and ligands were prepared as described above. However, 1 min after the addition of a nonchemoactive ligand at a final concentration of 10 mM, a chemoactive ligand was added at a final concentration of 10 mM, and the cultures were then filmed as described above. Videos were relabeled to blind the observer to the strain identity. For each sample, >100 3-s-long bacterial tracks from three independent cultures were analyzed manually to identify stops followed by direction changes. Data for all biological replicates under each condition were combined, and the average number of direction changes in 3 s and the standard error of the mean were calculated. For each strain, data were normalized to the values for the untreated control under each experimental condition. Statistical analysis of the data for treated versus untreated samples was performed using two-way analysis of variance (ANOVA) and Dunnett’s multiple-comparison test.

TlpALBD = assay: Small-molecule ligand binding array; parameters: species or system Helicobacter pylori SS1; details: ligand binding array screen; n = 3; note: key: + for positive binding; +/− for intermediate binding; − for no binding
Procedure: Small-molecule arrays were prepared and performed as previously described ([57]). Briefly, 1 μg of purified TlpALBD in phosphate-buffered saline (PBS) (pH 7.2) was incubated with a molar concentration ratio (4:2:1) of anti-His antibody (Cell Signaling), followed by incubation with a secondary antibody (Thermo Scientific) for signal amplification. The protein-antibody mix was added to an Arrayit Superepoxy III glass substrate array blocked with PBS (pH 7.2) with 1% bovine serum albumin. […] Unbound protein was washed away with PBS with 0.05% Tween. […] Three biological replicates were performed, with a total of 12 data points for each glycan tested. Binding was classified as positive for a ligand if the relative fluorescence unit value was >1-fold above the mean background (defined as the average background of negative-control spots plus 3 standard deviations [SD]) and was statistically significant (P < 0.005 by Student’s t test). Small-molecule array slide preparation and analysis were done according to MIRAGE guidelines ([58]) (outlined in Table S5).
Classification Guidelines
1. Sample: Glycan Binding Sample
Origin: Helico bact er pyl ori SS1; produce d as a reco mbinant His -tagged protein in E.
The preparation of TlpA is exp lained in the Materials and Methods se ct ion: TlpA co nst ruct desi gn and protein purifica tion.
Sample Sample is a His Tagged protein co ntaining only the periplasm ic rece ptor domain, amino […]
Please see Materials and Methods: Li ga nd bi ndi ng arra y.
Proteins were co mplexe d with mouse anti-his antibody, with se co ndary and tertiary Alexa Fluor555 antibodies (rabbit anti-mouse , goat anti-rabbit) at a molar ratio of 4:2:1.
The protein/antibody co mplex was incu bated on ice for 10 mins prior to placi ng on the Assa y array. Arrays were performed with 1 µg of co mplexe d protein incu bated on the array for protoco l 20 min. Arrays were then wash ed 3 times in Array PBS (PBS + 2 mM MgCl2 + 2 mM CaCl2) then dried by ce ntrifugation for 3 min at 300 x g. Sca nning was performed usi ng an Innopsys InnoSca n 1100AL and analyze d usi ng Mapix (Innopsy s). Yes/ no binding was determined by si x posi tive replica te sp ots in three replica te exp eriments. […]
2.2 Small molecule Library […]
descr iption for Compounds printed in the amino aci d/small molecu le array for this st udy are list ed in […]
5.2 Small molecule array with “Map”
The array co nsi sts of triplica te su b-arrays of amino aci ds and sm all moleucl es (24 rows x 10 co lumns) with 400μm sp ot sp aci ng (ce ntre to ce ntre) with a minimum sp ot si ze of 100μm . Each sa mple is printed si x times, with each of the 3 su b-arrays incl uding at least Array layo ut si x negative co ntrol sa mples (print so lution only) and a posi tive co ntrol sa mples […]
Posi tive co ntrols provi de proof of su cce ssf ul immobiliza tion of the amine reagents and provi des for orientation for analysi s.
Sample Arrays are quality co ntrolled by a range of measu res. 1. Each printed array is post print identifica tion sca nned to co nfirm deposi tion of the sa mples on the array su rface prior to neutraliza tion and quality of the remaining sl ide su rface . 2. Post neutralize d sl ides are sca nned again to monitor co ntrol for remaining autofluoresce nce .
1. 6. Detector and Data Processing
Sca nning reso lution: […]
Sca n powers: Low lase r power. […]
analysi s Innopsys MAPIX.

H. pylori PMSS1 ΔtlpA = assay: Temporal chemotaxis assay (direction changes), ΔtlpA mutant; format: cell-based, Helicobacter pylori; details: ligands 0.1-10 mM, controls 50 μM dipyridyl, 10 mM HCl
Procedure: Cultures of H. pylori PMSS1 WT and ΔtlpA strains were grown overnight, back-diluted, and then incubated until an OD600 of 0.12 to 0.15 was reached. Cultures were treated with water (Mock) or various concentrations of compounds, as indicated. For panels C and E, the pH of cysteine, thiamine, malic acid, and α-ketoglutarate stocks was adjusted using NaOH to match the pH of the water used for the untreated control. The cells were immediately filmed, and direction changes were counted over a 3-s swimming period in at least 100 cells per treatment from 3 biological replicates. Data are normalized to the values for the untreated control for each strain, as described in Materials and Methods. Error bars represent the standard errors of the means. *, P < 0.05; **, P < 0.01; ***, P < 0.001 (comparisons to the untreated control per strain using two-way ANOVA with Dunnett’s multiple-comparison test).
To determine if chemoattractant responses toward arginine, fumarate, and cysteine were TlpA dependent, the same tracking experiments were repeated with a mutant lacking tlpA (ΔtlpA).
Swimming behavior assays were done with H. pylori PMSS1 strains grown in BB10 as described above. Cultures grown overnight were diluted to an optical density at 600 nm (OD600) of 0.1 in fresh BB10 and then incubated with shaking as described above until an OD600 of 0.12 to 0.15 was reached. […] The number of direction changes in a bacterial swimming trajectory was enumerated over a 3-s interval to determine whether each putative ligand is sensed as an attractant or repellent or elicits no response ([20], [25][–][30]). […] Each control is sensed by chemoreceptors other than TlpA ([24], [25], [29], [31]). The pH of BB10 upon treatment was independently assessed using a Denver Instruments pH meter. Prior to realizing that chemotactic responses may be due to medium acidification, we resuspended all ligands in pure water. Therefore, to be able to compare the results to those of previous experiments, we continued resuspending acidified ligands in pure water and then adjusting the pH of the resuspended ligand using NaOH. Cultures were filmed immediately after ligand addition at a ×400 magnification using a Hamamatsu C4742-95 digital camera with μManager software (version 1.4.22), mounted on a Nikon Eclipse E600 phase-contrast microscope. For the competition chemotaxis assay, cultures of H. pylori and ligands were prepared as described above. However, 1 min after the addition of a nonchemoactive ligand at a final concentration of 10 mM, a chemoactive ligand was added at a final concentration of 10 mM, and the cultures were then filmed as described above. Videos were relabeled to blind the observer to the strain identity. For each sample, >100 3-s-long bacterial tracks from three independent cultures were analyzed manually to identify stops followed by direction changes. Data for all biological replicates under each condition were combined, and the average number of direction changes in 3 s and the standard error of the mean were calculated. For each strain, data were normalized to the values for the untreated control under each experimental condition. Statistical analysis of the data for treated versus untreated samples was performed using two-way analysis of variance (ANOVA) and Dunnett’s multiple-comparison test.

| SMILES | Change in binding affinity, any point mutant (TlpALBD point mutants) | Chemotactic response (direction changes vs mock) (H. pylori PMSS1 WT; WT, 0.1, 1, 10 mM tested, acidic ligand stocks pH neutralized with NaOH, 10 mM most significant) | Chemotactic response, ligand stock pH not adjusted (H. pylori PMSS1 WT; acidic in solution, unadjusted pH) | Array result (TlpALBD) | Chemotactic response of ΔtlpA mutant (H. pylori PMSS1 ΔtlpA) |
| --- | --- | --- | --- | --- | --- |
| O=C(O)CCC(=O)C(=O)O [α-Ketoglutarate, α-ketoglutaric acid] | no appreciable change | no significant direction changes | significant TlpA-independent chemorepellent responses | + |  |
| Cl [HCl, reference compound] |  |  |  |  | repellent responses |
| c1ccc(-c2ccccn2)nc1 [dipyridyl, 2,2′-dipyridyl, reference compound] |  |  |  |  | significant attractant |
